In this series the test system is CHIKV. The series is classed as cell-based, chikungunya virus.
As to “s32491 (GCCTGTATATGAGAGCCTT; chemistry not given here)”, the Score_si4 came to 0.05.
The substance “Hs_DC-UbP_2 (CAGGCTTTGAGACTCATGTAA; chemistry not given here)” came in with a Score_si1 of 1.59.
Consider “s50642 (sense CCTTCATGGTGGGACTGTA; chemistry not given here)”, for which the Score_si3 is listed as 0.69.
The substance “s30606 (CAGTGATGGTGATTCAGAT; chemistry not given here)” showed a Score_si4 of 0.49.
“Hs_E2F3_1 (TTGCGTTACTTTAAGTACTAA; chemistry not given here) [reference compound]” gave a Score_si1 of -2.09.
The same measure, in the same setting: in the case of “s33582 (CACCTAGAGTACGAAAACA; chemistry not given here)” it was 1.69.
The substance “s7586 (sense CCTACTGTCTGGTAGCGAT; chemistry not given here)” came in with a Score_si2 of 1.49.
The substance “Hs_RAD51L3_5 (sense CTGGAAGAGGTAGCTCAGAAA; chemistry not given here)” yielded a Score_si1 of 2.71.
Consider “Hs_PTBP1_18 (sense GCGCGTGAAGATCCTGTTCAA; chemistry not given here) [reference compound]”, for which the Score_si4 was -0.53.
In turn, “Hs_PPP1R15A_3 (CAGGATCAGCCGAGGATGAAA; chemistry not given here)” registered a Score_si3 of 1.25.
With “s9337 (GCTCTCCAACAATTACTAT; chemistry not given here) [reference compound]”, the Score_si4 was -0.09.
“Hs_RRBP1_4 (sense AAGAGATTGTAGAGAAGCTAA; chemistry not given here)” returned a Score_si3 of 1.79.
“Hs_MRPS12_7 (TTCCATCAGGACCACTATTAA; chemistry not given here)”: the Score_si1 is 1.99.
Turning to “s922 (CATTAACATTGTTCGCAAA; chemistry not given here)”, the Score_si4 was determined as 1.81.
In the case of “s38293 (GTAACAACAAATACTCATA; chemistry not given here)”, the Score_si2 was found to be 1.65.
The substance “Hs_DLD_3 (CAGGTGGAATTGCCCACTTAT; chemistry not given here)” came in with a Score_si1 of 2.15.
With “Hs_RXRA_1 (sense TTCGTGTAAGCAAGTACATAA; chemistry not given here)”, the Score_si1 was 2.2.
In turn, “Hs_NPEPL1_4 (CAGAATTCACTTGAGGTTCAA; chemistry not given here)” registered a Score_si3 of 1.44.
Turning to “Hs_DHX38_2 (CAGCAGTGAATTTGCAAAGAA; chemistry not given here)”, the Score_si4 came out at 1.02.
In turn, “Hs_CLPP_3 (sense GCCCATCCACATGTACATCAA; chemistry not given here)” showed a Score_si3 of 1.41.
Substance “s17590 (CAACAGTTCTCAGACCAAA; chemistry not given here) [reference compound]” registered a Score_si2 of -0.8.
In turn, “Hs_TGIF_1 (sense TACCCAGAGGACACTTGTAAA; chemistry not given here)” showed a Score_si1 of 1.41.
Turning to “s20340 (sense CAGGCTATCTGAACACGGT; chemistry not given here)”, the Score_si3 was determined as 1.49.
“Hs_IRAK1_6 (sense TCCCATCGCCATGCAGATCTA; chemistry not given here)”: the Score_si3 came to 1.57.
For the substance “Hs_PTX3_3 (sense AAAGGGATTTGTATTAATTTA; chemistry not given here)”, the Score_si3 is 1.09.
On to “Hs_SIMP_2 (sense CTGGCTTGTTAGGATATATAA; chemistry not given here) [reference compound]”, for which the Score_si1 is recorded as -2.63.
“Hs_CLK1_4 (sense CCGTATTTCCAACACACGATA; chemistry not given here)”: the Score_si4 stood at 0.91.
On the same count and under the same terms, with “Hs_SDFR1_11 (sense TACATAAAGATGAGTAATATA; chemistry not given here) [reference compound]” the figure was -1.37.
For “Hs_APPL_3 (TAGGAATAGGATAATGATATA; chemistry not given here) [reference compound]”, the Score_si2 is reported as -1.06.

These data come from paper PMC4865845, “A human genome-wide loss-of-function screen identifies effective chikungunya antiviral drugs” (Nature Communications, 2016).
